The supplement of paper PMC10733146

Key:
Assay in all cases: viability relative to DMSO control (fraction); higher = less drug effect (more viable cells)
Details in all cases: 48 h
[1] = test system: primary ALL patient cells (S088)
Summary of the method: (§1)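 Using 384-well plates with compounds already plated at five concentrations, one well per concentration, 4 × 10^4 primary mononuclear tumour cells were added per well. Cells were Ficoll-isolated from blood or bone marrow or came from processed lymph node, fresh or cryopreserved. They were kept for 48 h at 37 °C and 5% CO2 in RPMI-1640 supplemented with penicillin/streptomycin, L-glutamine and human serum, and viability was read as CellTiter-Glo luminescence relative to the median of 16 inner DMSO wells.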

[2] = test system: primary AML patient cells (S002)
Summary of the method: as §1

[3] = test system: primary AML patient cells (S011)
Summary of the method: as §1

[4] = test system: primary AML patient cells (S017)
Summary of the method: as §1

[5] = test system: primary AML patient cells (S019)
Summary of the method: as §1

[6] = test system: primary AML patient cells (S021)
Summary of the method: as §1

[7] = test system: primary AML patient cells (S025)
Summary of the method: as §1

[8] = test system: primary AML patient cells (S060)
Summary of the method: as §1

[9] = test system: primary AML patient cells (S071)
Summary of the method: as §1

[10] = test system: primary AML patient cells (S081)
Summary of the method: as §1

[11] = test system: primary AML patient cells (S085)
Summary of the method: as §1

[12] = test system: primary B-PLL patient cells (S016)
Summary of the method: as §1

[13] = test system: primary BL patient cells (S005)
Summary of the method: as §1

[14] = test system: primary CLL patient cells (S043)
Summary of the method: as §1

[15] = test system: primary DLBCL patient cells (S049)
Summary of the method: as §1

[16] = test system: primary DLBCL patient cells (S076)
Summary of the method: as §1

[17] = test system: primary T-NHL patient cells (S058)
Summary of the method: as §1

CC[C@H](Nc1ncnc2[nH]cnc12)c1nc2cccc(F)c2c(=O)n1-c1ccccc1 [Idelalisib]
viability ([1]; 0.0032 µM): 1.02 | viability ([1]; 0.016 µM): 0.948 | viability ([1]; 0.08 µM): 0.895 | viability ([1]; 0.4 µM): 0.914 | viability ([1]; 2 µM): 0.831 | viability ([2]; 0.0032 µM): 0.969 | viability ([2]; 0.016 µM): 1.02 | viability ([2]; 0.08 µM): 0.957 | viability ([2]; 0.4 µM): 0.924 | viability ([2]; 2 µM): 0.785 | viability ([3]; 0.0032 µM): 0.968 | viability ([3]; 0.016 µM): 0.873 | viability ([3]; 0.08 µM): 0.924 | viability ([3]; 0.4 µM): 0.88 | viability ([3]; 2 µM): 0.829 | viability ([4]; 0.0032 µM): 1.09 | viability ([4]; 0.016 µM): 1.1 | viability ([4]; 0.08 µM): 1.16 | viability ([4]; 0.4 µM): 0.988 | viability ([4]; 2 µM): 0.808 | viability ([5]; 0.0032 µM): 1.02 | viability ([5]; 0.016 µM): 0.936 | viability ([5]; 0.08 µM): 1.01 | viability ([5]; 0.4 µM): 1.13 | viability ([5]; 2 µM): 0.996 | viability ([6]; 0.0032 µM): 1.03 | viability ([6]; 0.016 µM): 0.928 | viability ([6]; 0.08 µM): 0.843 | viability ([6]; 0.4 µM): 0.827 | viability ([6]; 2 µM): 0.741 | viability ([7]; 0.0032 µM): 0.92 | viability ([7]; 0.016 µM): 0.935 | viability ([7]; 0.08 µM): 0.959 | viability ([7]; 0.4 µM): 1.14 | viability ([7]; 2 µM): 0.924 | viability ([8]; 0.0032 µM): 1.04 | viability ([8]; 0.016 µM): 1.02 | viability ([8]; 0.08 µM): 1.03 | viability ([8]; 0.4 µM): 1.08 | viability ([8]; 2 µM): 1.03 | viability ([9]; 0.0032 µM): 0.959 | viability ([9]; 0.016 µM): 0.868 | viability ([9]; 0.08 µM): 0.812 | viability ([9]; 0.4 µM): 0.733 | viability ([9]; 2 µM): 0.662 | viability ([10]; 0.0032 µM): 1.07 | viability ([10]; 0.016 µM): 1.04 | viability ([10]; 0.08 µM): 1.06 | viability ([10]; 0.4 µM): 1.07 | viability ([10]; 2 µM): 1.03 | viability ([11]; 0.0032 µM): 1.04 | viability ([11]; 0.016 µM): 0.844 | viability ([11]; 0.08 µM): 0.788 | viability ([11]; 0.4 µM): 0.82 | viability ([11]; 2 µM): 0.755 | viability ([12]; 0.0032 µM): 1.08 | viability ([12]; 0.016 µM): 0.889 | viability ([12]; 0.08 µM): 0.905 | viability ([12]; 0.4 µM): 0.794 | viability ([12]; 2 µM): 0.751 | viability ([13]; 0.0032 µM): 1 | viability ([13]; 0.016 µM): 0.95 | viability ([13]; 0.08 µM): 0.982 | viability ([13]; 0.4 µM): 1.01 | viability ([13]; 2 µM): 0.86 | viability ([14]; 0.0032 µM): 0.909 | viability ([14]; 0.016 µM): 0.805 | viability ([14]; 0.08 µM): 0.719 | viability ([14]; 0.4 µM): 0.745 | viability ([14]; 2 µM): 0.691 | viability ([15]; 0.0032 µM): 1.02 | viability ([15]; 0.016 µM): 1.02 | viability ([15]; 0.08 µM): 0.968 | viability ([15]; 0.4 µM): 1.02 | viability ([15]; 2 µM): 0.94 | viability ([16]; 0.0032 µM): 0.935 | viability ([16]; 0.016 µM): 0.879 | viability ([16]; 0.08 µM): 0.825 | viability ([16]; 0.4 µM): 0.832 | viability ([16]; 2 µM): 0.735 | viability ([17]; 0.0032 µM): 0.988 | viability ([17]; 0.016 µM): 0.916 | viability ([17]; 0.08 µM): 0.961 | viability ([17]; 0.4 µM): 1.08 | viability ([17]; 2 µM): 0.985
